Consider 65 molecules from PubChem BioAssay AID743402 (Broad Institute, 2014).

The experiment has as its system FRT CFTR-F508del YFP iodide quenching, 24 h. Kind of experiment: CFTR-F508del correctors, dose response, FRT cells, YFP quenching, cherry-pick (AID 743402).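 Also: compounds act as correctors raising surface CFTR-F508del before acute activation.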
Where [1] appears, read: channel opened with forskolin and a potentiator.

Consider `Clc1ccc(Nc2ccc3ccccc3n2)cc1`, for which, under setting [1], the AC35 is 4.5 µM.

With `CNc1ccc2c3c(cccc13)C(=O)N(C)C2=O`, under setting [1], the AC35 is 0.651 µM.

`C=CCN1C(=O)/C(=C/C=C2/N(CC)c3ccc(S(=O)(=O)N(C)C)cc3N2CC)SC1=S`: the AC35 under setting [1] was 1.3 µM.

On to `C[C@@H]1CN([C@@H](C)CO)C(=O)Cc2cc(N(C)C)ccc2O[C@@H]1CN(C)Cc1ccc(C(=O)Nc2ccccc2N)cc1`, for which, under setting [1], the AC35 is 19.7 µM.

Consider `CCC1(C)OC(c2ccccc2)=C/C(=C/C=C2C(=O)NC(=O)NC2=O)O1` (stereo not given), for which the AC35 is 11.7 µM.

Regarding `O=C(C1CC1)N1CC(=O)N2[C@H](CO)[C@@H](c3ccc(-c4ccccc4F)cc3)[C@@H]2C1`, under setting [1], the AC35 is 19.7 µM.

As to `O=C(Nc1cccc(F)c1)N1CCCCN2[C@@H](CO)[C@H](c3ccc(C#CC4CC4)cc3)[C@@H]2C1`, the AC35 under setting [1] was 20.8 µM.

In the case of `CC1(C)OC(c2ccccc2)=C/C(=C/C=C2C(=O)NC(=S)NC2=O)O1`, the AC35 was 3.34 µM.

On to `CCOc1ccc(C)cc1S(=O)(=O)n1cnc2ccccc21`, for which the AC35 under setting [1] was 15.9 µM.

For the molecule `O=c1c2ccccc2sc2c(CO)ccc(NCCN3CCCCC3)c12`, the AC35 under setting [1] is 21.8 µM.

`O=c1ccc2c(-c3ccccc3)c3ccc(O)cc3oc-2c1`: the AC35 under setting [1] was 1.11 µM.

Turning to `CN1C(=CC=C2C=C(I)C(=O)C(I)=C2)C(C)(C)c2ccccc21`, the AC35 under setting [1] is 5.68 µM.

Turning to `COC(=O)c1ccccc1-c1c2ccc(=N)cc-2oc2cc(N)ccc12`, the AC35 under setting [1] is 0.0334 µM.

Take `O=C(C1CCCC1)N1CC(=O)N2[C@H](CO)[C@@H](c3ccc(-c4ccccc4F)cc3)[C@@H]2C1`: the AC35 under setting [1] is 22.2 µM.

`CN(C)/C=C1\C=C2C(=O)c3ccccc3N2C1=O`: the AC35 under setting [1] is 2.19 µM.

On to `COc1cccc2c1C(=O)c1c(O)c3c(c(O)c1C2=O)CC(O)(C(=O)CO)CC3OC1CC(N(C)C)C(O)C(C)O1` (stereo not given), for which the AC35 under setting [1] was 1.37 µM.

Regarding `COc1cccc2c1C(=O)C=C(C)C2=O`, the AC35 under setting [1] is 6.68 µM.

On to `Cn1c(=O)c(NC2CCCCC2)c2c3c(cccc31)C(=O)c1ccccc1-2`, for which the AC35 under setting [1] is 1.05 µM.

For the molecule `CCC1=C(CC2NCCc3ccccc32)CC2c3cc(OC)c(OC)cc3CCN2C1` (stereo not given), under setting [1], the AC35 is 15.4 µM.

Take `COc1cccc(-c2ccc(C3[C@@H]4CN(S(=O)(=O)c5cccc(OC)c5)C[C@H]3N4)cc2)c1` (stereo not given in full): the AC35 under setting [1] was 16 µM.

In the case of `O=[N+]([O-])c1ccc(N2CCOCC2)c2c1no[n+]2[O-]`, the AC35 is 10.4 µM.

For the molecule `CC1=NCCc2c1[nH]c1cc(O)ccc21`, the AC35 was 13.4 µM.

With `COc1cc(/C=C2/SC(=S)N(Cc3ccccc3)C2=O)cc(Cl)c1O`, the AC35 under setting [1] is 3.7 µM.

As for `COc1ccc(/C=N/NC(=O)c2cccnc2)cc1CSc1ccccn1`, under setting [1], the AC35 is 8.21 µM.

Regarding `CC1=C/C(=C\C=C(C#N)C#N)N(C)c2ccccc21`, the AC35 under setting [1] is 5.2 µM.

As for `CC1(C)OC(c2ccccc2)=C/C(=C/C=C2C(=O)NC(=O)NC2=O)O1`, the AC35 is 13.4 µM.

Regarding `CN1/C(=C\C=C2/SC(=S)N(CC(=O)O)C2=O)C(C)(C)c2ccccc21`, the AC35 under setting [1] is 1.37 µM.

On to `N#CC(C#N)=C1C=C2C=C(N3CCOCC3)CCC2CC1` (stereo not given), for which the AC35 under setting [1] is 0.14 µM.

Turning to `COc1cc(OC)cc(C(=O)N[C@H](C(=O)Nc2nc3ccccc3[nH]2)C(C)C)c1`, under setting [1], the AC35 is 9.27 µM.

For the molecule `CCC(=O)N1CC2(CCN(Cc3ccc(Cl)cc3)CC2)c2c([nH]c3cc(OC)ccc23)[C@H]1CO`, under setting [1], the AC35 was 22.2 µM.

Regarding `CCCC#Cc1ccc([C@H]2[C@@H](CO)N3CCCCN(S(=O)(=O)c4ccccc4C)C[C@H]23)cc1`, under setting [1], the AC35 was 19 µM.

Regarding `O=C1c2cccc3c(O)ccc(c23)C(=O)N1Cc1ccco1`, the AC35 under setting [1] was 2.65 µM.

In the case of `C[C@H]1CCC/C=C/[C@@H]2C[C@H](O)C[C@H]2[C@H](O)/C=C/C(=O)O1`, the AC35 was 15.2 µM.

Take `CN(C)CCCNc1c2ccccc2nc2ccccc12`: under setting [1], the AC35 is 3.57 µM.

For the molecule `COc1ccc(C(=O)NCCN(C)C)c2nc3ccccc3cc12`, the AC35 under setting [1] is 25.7 µM.

`COc1ccc2noc3c2c1C(=O)c1ccccc1-3`: the AC35 under setting [1] is 5.51 µM.

As to `COc1cccc2c1C(=O)c1c(O)c3c(c(O)c1C2=O)CC(O)(C(C)=O)CC3OC1CC(N(C)C)C(O)C(C)O1` (stereo not given), the AC35 under setting [1] is 1.03 µM.

For `CC(=O)OCCn1c2nc(=O)[nH]c(=O)c-2nc2cc(C)c(C)cc21`, under setting [1], the AC35 was 1.37 µM.

With `Nc1ccc(-c2c3ccc(=O)cc-3oc3cc(O)ccc23)cc1C(=O)O`, the AC35 under setting [1] is 1.61 µM.

Turning to `NS(=O)(=O)c1ccc(NC(=O)c2cccc3cc4ccccc4nc23)cc1`, the AC35 under setting [1] was 20.9 µM.

Take `O=C(Cc1ccccc1)N1CC(=O)N2[C@H](C1)[C@@H](c1ccc(C#Cc3ccccc3)cc1)[C@@H]2CO`: under setting [1], the AC35 is 21.3 µM.

Consider `CN1c2ccc(-c3ccc(F)cc3)cc2[C@H]2[C@H](CCN2S(=O)(=O)c2cccc(F)c2)[C@H]1CO`, for which the AC35 under setting [1] was 15.5 µM.

For the molecule `CC(=O)Oc1ccc(N2C(=O)c3cccc4c([N+](=O)[O-])ccc(c34)C2=O)cc1`, the AC35 under setting [1] is 8.38 µM.

Regarding `N#Cc1ccc(-c2ccc(C3[C@@H]4CN(C(=O)C5CCC5)C[C@H]3N4)cc2)cc1` (stereo not given in full), under setting [1], the AC35 is 22.1 µM.

For the molecule `CC[n+]1c(-c2ccccc2)c2cc(N)ccc2c2ccc(N)cc21`, the AC35 is 13.3 µM.

As to `CC(C)Nc1nc(Nc2ccc(Cl)cc2F)c2sccc2n1`, the AC35 under setting [1] is 12.7 µM.

In the case of `COC1C(C)OC(OC2CC(C)(O)Cc3cc4c(c(O)c32)C(=O)c2c(O)cc3c(c2C4=O)OC2OC3(C)C(O)C(N(C)C)C2O)C(OC)C1(C)OC` (stereo not given), the AC35 is 2.39 µM.

Consider `O=c1ccc2[n+]([O-])c3ccc(O)cc3oc-2c1`, for which the AC35 under setting [1] was 10.9 µM.

For `COc1ccc(S(=O)(=O)N2CC[C@@H]3[C@H](CO)N(C)c4ccc(-c5ccc(F)cc5)cc4[C@@H]32)cc1`, under setting [1], the AC35 was 15.3 µM.

Regarding `CO[C@@]12[C@@H]3N[C@@H]3CN1C1=C(C(=O)C(N)=C(C)C1=O)[C@@H]2COC(N)=O`, the AC35 under setting [1] is 19.4 µM.

Consider `Cc1ccc(N2C(=O)c3cccc4c([N+](=O)[O-])ccc(c34)C2=O)c2cccnc12`, for which the AC35 under setting [1] was 4.81 µM.

For the molecule `C[C@@H]1CN([C@@H](C)CO)C(=O)Cc2cc(NC(=O)Nc3cccc4ccccc34)ccc2O[C@@H]1CN(C)Cc1ccc(Cl)c(Cl)c1`, the AC35 under setting [1] is 22.4 µM.

As for `O=C(O)c1ccccc1-c1c2cc(I)c(=O)c(I)c-2oc2c(I)c(O)c(I)cc12`, the AC35 under setting [1] is 1.74 µM.

In the case of `Cc1cc(Nc2ccc(Br)cc2)nc2ccccc12`, under setting [1], the AC35 is 8.45 µM.

For `O=C1c2cccc3c(N4CCCCC4)ccc(c23)C(=O)N1c1cccc(O)c1`, the AC35 under setting [1] is 4.44 µM.

For the molecule `COc1ccc(OC)c(-c2nnc3n2N=C(c2ccc(OC)c(OC)c2)CS3)c1`, the AC35 under setting [1] was 5.34 µM.

On to `COc1cccc(S(=O)(=O)N2C[C@@H]3N[C@H](C2)C3c2ccc(-c3cccc(C)c3)cc2)c1` (stereo not given in full), for which the AC35 under setting [1] was 21 µM.

Take `CC(=O)Nc1sc2c(c1-c1nc3ccccc3s1)CN(C(C)C)CC2`: the AC35 under setting [1] is 10.7 µM.

Consider `C[C@H]1CN([C@@H](C)CO)S(=O)(=O)c2ccc(/C=C/c3ccccc3)cc2O[C@H]1CN(C)Cc1ccccc1`, for which, under setting [1], the AC35 is 21.9 µM.

Turning to `COc1cccc2c1C(=O)c1c(O)c3c(c(O)c1C2=O)C[C@](O)(C(C)=O)C[C@H]3O[C@@H]1C[C@@H](N)[C@@H](O)[C@@H](C)O1`, under setting [1], the AC35 is 1.65 µM.

Regarding `CCN1C(=O)c2cccc3c(N)ccc(c23)C1=O`, under setting [1], the AC35 is 2.83 µM.

For the molecule `CCN1/C(=C\c2ccc3cc(C)ccc3[n+]2CC)Sc2cc(C)c(C)cc21`, under setting [1], the AC35 is 1.02 µM.

For `CC(C)(C)c1ccc(OCC(=O)Nc2ccc3c4c(cccc24)C(=O)NC3=O)cc1`, the AC35 under setting [1] is 6.68 µM.

Consider `CC(=O)Nc1ccc2cc3ccc(NC(C)=O)cc3nc2c1`, for which the AC35 under setting [1] was 3.98 µM.

In the case of `CC(C)n1cc(/C=C/c2cc[n+](C)cc2)c2ccccc21`, the AC35 under setting [1] is 0.752 µM.
